# Source: paper PMC9977302, “Medium-chain fatty acids suppress lipotoxicity-induced hepatic fibrosis via the immunomodulating receptor GPR84” (JCI Insight, 2023)
# Like-named read-outs stand apart in the source and are kept apart here.
# Biological target: GPR84 (Mus musculus, UniProt Q8CIM5)
# Assay: cAMP inhibition assay in Dox-inducible mouse GPR84 HEK293 cells, with Dox-uninduced controls
# Assay type: cell-based
# Chain of GPR84 (Q8CIM5 whole entry): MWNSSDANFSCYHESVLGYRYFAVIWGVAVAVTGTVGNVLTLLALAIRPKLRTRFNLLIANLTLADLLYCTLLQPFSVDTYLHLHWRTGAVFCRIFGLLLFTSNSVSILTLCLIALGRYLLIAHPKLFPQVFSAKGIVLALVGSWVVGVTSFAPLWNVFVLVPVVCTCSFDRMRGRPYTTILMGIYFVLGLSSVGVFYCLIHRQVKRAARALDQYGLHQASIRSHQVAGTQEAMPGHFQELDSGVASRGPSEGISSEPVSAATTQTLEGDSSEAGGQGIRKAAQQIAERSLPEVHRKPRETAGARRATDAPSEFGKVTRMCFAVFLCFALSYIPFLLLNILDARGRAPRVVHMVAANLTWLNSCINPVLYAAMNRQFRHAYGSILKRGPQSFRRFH
EC50 (read-out: EC50) [µM],SMILES,EC50 [µM]
–,"CCCCCCCCCC(=O)O [C10:0, capric acid]",3.5
4.4,CCCCCCCCCCCC(=O)O [C12:0],–
